Reference: article PMC10235067, “Increased renal elimination of endogenous and synthetic pyrimidine nucleosides in concentrative nucleoside transporter 1 deficient mice” (Nature Communications, 2023)
Values joined by “and” are separate entries in the source; they are usually repeats but may differ in a detail not shown here. Identical values can stand only once. Counter-ions that a name gives are not always drawn.

Assays:
[1] = Gemcitabine plasma pharmacokinetics in Slc28a1+/+ and Slc28a1-/- mice; conditions: plasma; for half-life: T1/2 (terminal half-life); for Vd: Vss
[2] = system: CNT1; conditions: read-out: Km (affinity for CNT1); cited from earlier work
[3] = system: KPC cells; assay: Tumor burden by bioluminescent imaging after orthotopic implantation of KPC-LUC cells; conditions: orthotopic KPC-LUC tumors, Gemcitabine group, Fig. 6C source data
[4] = system: KPC cells; assay: Survival of mice with orthotopic syngeneic KPC pancreatic tumors treated with dFdC
[5] = cited from earlier work
[6] = Gemcitabine urine pharmacokinetics (renal excretion) in Slc28a1+/+ and Slc28a1-/- mice
Procedure: THU was added to the mouse urine samples upon collection and frozen until analysis. […] Five microliters of the diluted samples were transferred to a 96-well autosampler plate then 10 µL of internal standard mixture was added and mixed. […] The plate was then transferred to the 4 °C autosampler for analysis.
The chromatographic separation was performed on a Thermo Accucore aQ 2.6 µm, 100 ×2.1 mm column at 30 °C using a gradient with a 10 µL injection volume. The mobiles phases were 1 mM ammonium acetate in deionized water pH 6.8 and acetonitrile. The total run time was 5.5 min. […] The LC–MS/MS analysis was conducted on a Thermo Vanquish UHPLC with a TSQ Quantiva mass spectrometer equipped with an electrospray ionization source.

[7] = female, mouse, iv, 50 mg/kg, Slc28a1+/+ mice, single i.v. dFdC 50 mg/kg
[8] = female, mouse, iv, 50 mg/kg, Slc28a1-/- mice, single i.v. dFdC 50 mg/kg

Question: What does the source list for `Nc1ccn([C@@H]2O[C@H](CO)[C@@H](O)C2(F)F)c(=O)n1` [dFdC, Gemcitabine hydrochloride, reference compound]?
Answer: concentration at 10 min ([1]; female, mouse, intravenous, 50 mg/kg, Cp (Gemcitabine), KO mice, single iv gemcitabine 50mg/kg, 10 min): 1.94 µg/mL; concentration at 60 min ([1]; female, mouse, intravenous, 50 mg/kg, Cp (Gemcitabine), KO mice, single iv gemcitabine 50mg/kg, 60 min): 0.0288 µg/mL; AUC(0-inf) ([1]; female, mouse, iv, 50 mg/kg, AUCINF_obs, Gemcitabine in plasma, WT mice, iv gemcitabine 50mg/kg, per mouse): 1120 ng·h/mL; AUC(0-inf) ([1]; female, mouse, iv, 50 mg/kg, AUCINF_pred, Gemcitabine in plasma, WT mice, iv gemcitabine 50mg/kg, per mouse): 1130 ng·h/mL; AUC ([1]; female, mouse, iv, 50 mg/kg, AUCall, Gemcitabine in plasma, WT mice, iv gemcitabine 50mg/kg, per mouse): 1010 ng·h/mL; AUC(0-t) ([1]; female, mouse, iv, 50 mg/kg, AUClast, Gemcitabine in plasma, WT mice, iv gemcitabine 50mg/kg, per mouse): 1010 ng·h/mL; clearance ([1]; female, mouse, iv, 50 mg/kg, CL (systemic clearance), Slc28a1+/+ mice, single i.v. dFdC 50 mg/kg): 607 mL/min/kg; clearance ([1]; female, mouse, iv, 50 mg/kg, CL (systemic clearance), Slc28a1-/- mice, single i.v. dFdC 50 mg/kg): 951 ± 167 mL/min/kg; clearance ([1]; female, mouse, iv, 50 mg/kg, Cl_obs, Gemcitabine in plasma, WT mice, iv gemcitabine 50mg/kg, per mouse): 745 mL/min/kg; Cmax [1, 7]: 3.65 ± 0.408 µg/mL; Cmax [1, 8]: 3.12 ± 0.335 µg/mL; half-life [1, 7]: 13.6 ± 0.67 min; half-life [1, 8]: 11.5 ± 0.81 min; Tmax [1, 7]: ~5 min; Tmax [1, 8]: ~5 min; Vd [1, 7]: 14.4 L/kg; Vd [1, 8]: 14.1 L/kg; Cp (Gemcitabine) ([1]; KO mice, single iv gemcitabine 50mg/kg, 10 min): 2.50577 µg/mL and 1.69901 µg/mL and 1.48777 µg/mL and 1.7432 µg/mL and 1.81705 µg/mL; Cp (Gemcitabine) ([1]; KO mice, single iv gemcitabine 50mg/kg, 60 min): 0.0303338 µg/mL and 0.0295353 µg/mL and 0.0273213 µg/mL and 0.0282215 µg/mL and 0.0275324 µg/mL; Km [2]: 12 to 36 µM; Tumor burden (bioluminescent imaging signal), individual mice ([3]; day 7, Slc28a1-/- mice): -32133333333 and 23906666667 and -21903333333 and -24593333333 and -34283333333 and 89006666667; Tumor burden (bioluminescent imaging signal), individual mice ([3]; day 7, wild-type mice): 59739000000 and -37121000000 and -92035000000 and 9139000000 and 52739000000 and 7539000000; Tumor burden (bioluminescent imaging signal), individual mice ([3]; day 14, Slc28a1-/- mice): 144007000000 and 59806666667 and 55206666667 and 122107000000 and 12746666667 and 52806666667; Tumor burden (bioluminescent imaging signal), individual mice ([3]; day 14, wild-type mice): 127000000000 and 202000000000 and 71900000000 and 123000000000 and 33800000000 and -44800000000; Tumor burden (bioluminescent imaging signal), individual mice ([3]; day 21, Slc28a1-/- mice): 903000000000 and 356000000000 and 622000000000 and 1010000000000 and 2710000000000 and 506000000000; Tumor burden (bioluminescent imaging signal), individual mice ([3]; day 21, wild-type mice): 998000000000 and 735000000000 and 252000000000 and 420000000000 and 526000000000 and 763000000000; Tumor burden (bioluminescent imaging signal), individual mice ([3]; day 25, Slc28a1-/- mice): 1770000000000 and 1210000000000 and 722000000000 and 1860000000000 and 1930000000000 and 2060000000000; Tumor burden (bioluminescent imaging signal), individual mice ([3]; day 25, wild-type mice): 1230000000000 and 109000000000 and 355000000000 and 803000000000 and 1440000000000 and 1090000000000; Survival, Days (individual mice) ([4]; CNT1 (Slc28a1-/-) Gemcitabine (25mg/ml) group, Fig. 6E source data): 27 days and 32 days and 35 days and 39 days; Survival, Days (individual mice) ([4]; CNT1 (Slc28a1-/-) Gemcitabine (37mg/ml) group, Fig. 6E source data): 30 days and 43 days and 45 days and 46 days; Survival, Days (individual mice) ([4]; CNT1 (Slc28a1-/-) Gemcitabine group, Fig. 6D source data): 26 days and 43 days and 35 days and 23 days and 45 days; Survival event flag (1 = event, 0 = censored), individual mice ([4]; CNT1 + Gemcitabine (Slc28a1-/-), Fig. 6D source data): 1; Survival event flag (1 = event, 0 = censored), individual mice ([4]; CNT1 Gemcitabine (25mg/ml), Fig. 6E source data, column headed CNT1 + Vehicle): 1; Survival event flag (1 = event, 0 = censored), individual mice ([4]; CNT1 Gemcitabine (37mg/ml), Fig. 6E source data): 1; mice remaining healthy at day 45 ([4]; Slc28a1+/+ mice, dFdC 25 mg/kg i.v.): approximately 66%; median overall survival ([4]; Slc28a1+/+ mice, dFdC 25 mg/kg i.v. twice a week, Fig. 6D): > 50 days; day by which all mice died ([4]; Slc28a1-/- mice, dFdC 25 mg/kg i.v.): ≤ 45 days; median overall survival ([4]; Slc28a1-/- mice, dFdC 25 mg/kg i.v. twice a week, Fig. 6D): 39 days; median overall survival ([4]; Slc28a1-/- mice, dFdC 37 mg/kg i.v. twice a week, Fig. 6E): 42 days; Survival event flag (1 = event, 0 = censored), individual mice ([4]; WT + Gemcitabine, Fig. 6D source data): 0 and 1; Survival, Days (individual mice) ([4]; WT Gemcitabine group, Fig. 6D source data, event flag in WT + Gemcitabine): 50 days and 33 days and 45 days; Log P [5]: −1.5; Cp (Gemcitabine) ([6]; Figure 5 G, H, I, KO mice, 5 Minutes, individual mice): 667.756 µg/mL and 701.121 µg/mL and 742.057 µg/mL and 708.576 µg/mL and 1006.774 µg/mL; Cp (Gemcitabine) ([6]; Figure 5 G, H, I, KO mice, 10 Minutes, individual mice): 1196.136 µg/mL and 1117.096 µg/mL and 1176.76 µg/mL and 1333.848 µg/mL and 1383.016 µg/mL and 1407.258 µg/mL; Cp (Gemcitabine) ([6]; Figure 5 G, H, I, KO mice, 15 Minutes, individual mice): 1417.457 µg/mL and 1463.209 µg/mL and 1417.045 µg/mL and 1464.236 µg/mL and 1528.485 µg/mL and 1605.582 µg/mL; Cp (Gemcitabine) ([6]; Figure 5 G, H, I, KO mice, 30 Minutes, individual mice): 1020.435 µg/mL and 1043.589 µg/mL and 1004.789 µg/mL and 686.314 µg/mL and 637.597 µg/mL; Cp (Gemcitabine) ([6]; Figure 5 G, H, I, KO mice, 60 Minutes, individual mice): 806.557 µg/mL and 703.249 µg/mL and 814.631 µg/mL and 838.872 µg/mL and 677.262 µg/mL; Cp (Gemcitabine) ([6]; Figure 5 G, H, I, KO mice, 120 Minutes, individual mice): 1007.916 µg/mL and 1001.638 µg/mL and 923.671 µg/mL and 928.827 µg/mL and 1022.245 µg/mL; Cp (Gemcitabine) ([6]; Figure 5 G, H, I, KO mice, 240 Minutes, individual mice): 131.108 µg/mL and 117.705 µg/mL and 128.911 µg/mL and 104.939 µg/mL and 51.416 µg/mL and 148.894 µg/mL; Cp (Gemcitabine) ([6]; Figure 5 G, H, I, WT mice, 5 Minutes, individual mice): 473.332 µg/mL and 486.741 µg/mL and 465.952 µg/mL and 485.933 µg/mL and 493.479 µg/mL; Cp (Gemcitabine) ([6]; Figure 5 G, H, I, WT mice, 10 Minutes, individual mice): 654.272 µg/mL and 654.234 µg/mL and 642.732 µg/mL and 677.281 µg/mL and 755.524 µg/mL; Cp (Gemcitabine) ([6]; Figure 5 G, H, I, WT mice, 15 Minutes, individual mice): 869.257 µg/mL and 882.561 µg/mL and 865.564 µg/mL and 871.549 µg/mL and 735.964 µg/mL; Cp (Gemcitabine) ([6]; Figure 5 G, H, I, WT mice, 30 Minutes, individual mice): 865.074 µg/mL and 694.859 µg/mL and 1051.246 µg/mL and 934.229 µg/mL and 1018.271 µg/mL; Cp (Gemcitabine) ([6]; Figure 5 G, H, I, WT mice, 60 Minutes, individual mice): 691.965 µg/mL and 701.388 µg/mL and 530.199 µg/mL and 662.975 µg/mL and 688.86 µg/mL; Cp (Gemcitabine) ([6]; Figure 5 G, H, I, WT mice, 120 Minutes, individual mice): 410.29 µg/mL and 371.477 µg/mL and 406.197 µg/mL and 640.633 µg/mL and 369.675 µg/mL; Cp (Gemcitabine) ([6]; Figure 5 G, H, I, WT mice, 240 Minutes, individual mice): 394.084 µg/mL and 419.478 µg/mL and 409.47 µg/mL and 387.436 µg/mL and 378.97 µg/mL; Dose in Urine (% of total dose administered) ([6]; Slc28a1+/+ mice, single i.v. dFdC 50 mg/kg): 7.53%; Dose in Urine (% of total dose administered) ([6]; Slc28a1-/- mice, single i.v. dFdC 50 mg/kg): 13.73%; concentration at 5 min ([6]; mouse, urine, intravenous, 50 mg/kg, Cp (Gemcitabine), Figure 5 G, H, I, KO mice, 5 Minutes, individual mice): 690 µg/mL; concentration at 30 min ([6]; mouse, urine, intravenous, 50 mg/kg, Cp (Gemcitabine), Figure 5 G, H, I, KO mice, 30 Minutes, individual mice): 995 µg/mL; concentration at 60 min ([6]; mouse, urine, intravenous, 50 mg/kg, Cp (Gemcitabine), Figure 5 G, H, I, KO mice, 60 Minutes, individual mice): 801 µg/mL; concentration at 120 min ([6]; mouse, urine, intravenous, 50 mg/kg, Cp (Gemcitabine), Figure 5 G, H, I, KO mice, 120 Minutes, individual mice): 977 µg/mL; concentration at 5 min ([6]; mouse, urine, intravenous, 50 mg/kg, Cp (Gemcitabine), Figure 5 G, H, I, WT mice, 5 Minutes, individual mice): 447 µg/mL; concentration at 10 min ([6]; mouse, urine, intravenous, 50 mg/kg, Cp (Gemcitabine), Figure 5 G, H, I, WT mice, 10 Minutes, individual mice): 628 µg/mL; concentration at 15 min ([6]; mouse, urine, intravenous, 50 mg/kg, Cp (Gemcitabine), Figure 5 G, H, I, WT mice, 15 Minutes, individual mice): 859 µg/mL; concentration at 30 min ([6]; mouse, urine, intravenous, 50 mg/kg, Cp (Gemcitabine), Figure 5 G, H, I, WT mice, 30 Minutes, individual mice): 725 µg/mL; concentration at 60 min ([6]; mouse, urine, intravenous, 50 mg/kg, Cp (Gemcitabine), Figure 5 G, H, I, WT mice, 60 Minutes, individual mice): 864 µg/mL; concentration at 120 min ([6]; mouse, urine, intravenous, 50 mg/kg, Cp (Gemcitabine), Figure 5 G, H, I, WT mice, 120 Minutes, individual mice): 403 µg/mL; concentration at 240 min ([6]; mouse, urine, intravenous, 50 mg/kg, Cp (Gemcitabine), Figure 5 G, H, I, WT mice, 240 Minutes, individual mice): 400 µg/mL; renal clearance (CLr) in Slc28a1-/- mice higher than in Slc28a1+/+ mice ([6]; non-compartmentally calculated, single i.v. dFdC 50 mg/kg): 126.63%
